{"source": "patent US20180179198A1", "about": "“TRICYCLIC MODULATORS OF TNF SIGNALING” (AbbVie Inc., priority 2015, published 2018)"}
{"target": "TNFα trimer (Homo sapiens, UniProt P01375)", "sequence (P01375 77-233 limits assumed)": "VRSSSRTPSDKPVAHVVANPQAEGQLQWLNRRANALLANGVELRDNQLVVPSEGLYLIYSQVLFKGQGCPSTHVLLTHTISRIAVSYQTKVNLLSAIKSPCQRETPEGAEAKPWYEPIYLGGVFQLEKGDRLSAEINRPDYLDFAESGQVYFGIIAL", "assay": "TNFα FP Competitive Binding Assay", "conditions": "fluorescence polarization competition; 20 nM TNFα trimer, 1 nM OregonGreen488 probe; read-out: TNF IC50 (TNFα FP binding assay IC50)", "method_in_brief": "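Compounds, 12-point 1:3 dilutions topping at 100 μM (2.0% DMSO) or 338 μM (3.4% DMSO) final, compete with 1 nM fluorescent probe for 20 nM TNFα trimer in HEPES/NaCl/EDTA/Triton buffer. After 18-24 h incubation at 37 °C plus 1 h rt equilibration, background-subtracted polarization is read and fitted with variable slope.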", "units": {"IC50": "nM"}}
{"smiles": "COc1ccccc1C1CCCc2nc3ccc(-c4cnc(N5CCOCC5)nc4)cn3c21", "note": "(stereo not shown) [Example 15, 4-(5-(9-(2-Methoxyphenyl)-6,7,8,9-tetrahydrobenzo[4,5]imidazo[1,2-a]pyridin-2-yl)pyrimidin-2-yl)morpholine]", "IC50": "< 1000"}
{"smiles": "COc1ccccc1C1CCCc2nc3ccc(-c4cnc(C(C)(C)O)nc4)cn3c21", "note": "(stereo not shown) [Example 16, 2-(5-(9-(2-Methoxyphenyl)-6,7,8,9-tetrahydrobenzo[4,5]imidazo[1,2-a]pyridin-2-yl)pyrimidin-2-yl)propan-2-ol]", "IC50": "< 1000"}
{"smiles": "CC(C)(O)c1ncc(-c2ccc3nc4n(c3c2)C(C2CCCCC2)CC4)cn1", "note": "(stereo not shown) [Example 17, 2-(5-(1-Cyclohexyl-2,3-dihydro-H-benzo[d]pyrrolo[1,2-a]imidazol-7-yl)pyrimidin-2-yl)propan-2-ol]", "IC50": "< 1000"}
{"smiles": "c1ccc(C2CCc3nc4ccc(N5CCN(c6ncccn6)CC5)nc4n32)cc1", "note": "(stereo not shown) [Example 18, 8-Phenyl-2-(4-(pyrimidin-2-yl)piperazin-1-yl)-7,8-dihydro-6H-pyrrolo[2′,1′:2,3]imidazo[4,5-b]pyridine]", "IC50": "1000 to 10000"}
{"smiles": "c1ccc(C2COCc3nc4ccc(-c5cnc(N6CCOCC6)nc5)cc4n32)cc1", "note": "(stereo not shown) [Example 19, 7-(2-Morpholinopyrimidin-5-yl)-4-phenyl-3,4-dihydro-H-benzo[4,5]imidazo[2,1-c][1,4]oxazine]", "IC50": "< 1000"}
{"smiles": "c1ccc([C@@H]2COCc3nc4ccc(-c5cnc(N6CCOCC6)nc5)cc4n32)cc1", "note": "[Example 20, (R)-7-(2-Morpholinopyrimidin-5-yl)-4-phenyl-3,4-dihydro-1H-benzo[4,5]imidazo[2,1-c][1,4]oxazine]", "IC50": "10000 to 100000"}
{"smiles": "O=C(O)C1CCN(c2ncc(-c3ccc4nc5n(c4c3)C(c3ccccc3)COC5)cn2)CC1", "note": "(stereo not shown) [Example 22, 1-(5-(4-Phenyl-3,4-dihydro-1H-benzo[4,5]imidazo[2,1-c][1,4]oxazin-7-yl)pyrimidin-2-yl)piperidine-4-carboxylic acid]", "IC50": "1000 to 10000"}
{"smiles": "COc1ccccc1C1CCCc2nc3ccc(-c4ccc(C(=O)O)s4)cn3c21", "note": "(stereo not shown) [Example 23, 5-(9-(2-Methoxyphenyl)-6,7,8,9-tetrahydrobenzo[4,5]imidazo[1,2-a]pyridin-2-yl)thiophene-2-carboxylic acid]", "IC50": "1000 to 10000"}
{"smiles": "O=C1NC[C@@H]2CN(c3ncc(-c4ccc5nc6n(c5c4)[C@@H](c4ccccc4)CC6)cn3)CCN12", "note": "[Example 24, (R)-7-(5-((R)-1-Phenyl-2,3-dihydro-1H-benzo[d]pyrrolo[1,2-a]imidazol-7-yl)pyrimidin-2-yl)hexahydroimidazo[1,5-a]pyrazin-3(2H)-one]", "IC50": "< 1000"}
{"smiles": "O=C1NC[C@H]2CN(c3ncc(-c4ccc5nc6n(c5c4)[C@@H](c4ccccc4)CC6)cn3)CCN12", "note": "[Example 25, (S)-7-(5-((R)-1-Phenyl-2,3-dihydro-1H-benzo[d]pyrrolo[1,2-a]imidazol-7-yl)pyrimidin-2-yl)hexahydroimidazo[1,5-a]pyrazin-3(2H)-one]", "IC50": "< 1000"}
{"smiles": "O=C1NC[C@@H]2CN(c3ncc(-c4ccc5nc6n(c5c4)[C@@H](c4ccccc4)COC6)cn3)CCN12", "note": "[Example 26, (R)-7-(5-((S)-4-Phenyl-3,4-dihydro-1H-benzo[4,5]imidazo[2,1-c][1,4]oxazin-7-yl)pyrimidin-2-yl)hexahydroimidazo[1,5-a]pyrazin-3(2H)-one]", "IC50": "< 1000"}
{"smiles": "O=C1NC[C@H]2CN(c3ncc(-c4ccc5nc6n(c5c4)[C@@H](c4ccccc4)COC6)cn3)CCN12", "note": "[Example 27, (S)-7-(5-((S)-4-Phenyl-3,4-dihydro-1H-benzo[4,5]imidazo[2,1-c][1,4]oxazin-7-yl)pyrimidin-2-yl)hexahydroimidazo[1,5-a]pyrazin-3(2)-one]", "IC50": "< 1000"}
{"smiles": "CC(C)(O)c1ncc(-c2ccc3nc4n(c3c2)C(c2ccccn2)CC4)cn1", "note": "(stereo not shown) [Example 28, 2-(5-(1-(Pyridin-2-yl)-2,3-dihydro-1H-benzo[d]pyrrolo[1,2-a]imidazol-7-yl)pyrimidin-2-yl)propan-2-ol]", "IC50": "1000 to 10000"}
